This experiment has as its target T1, particulate guanylyl cyclase receptor A (pGC-A) (Homo sapiens, UniProt P16066).
T1 construct: expressed in transfected cells; host or cells: HEK293
T1 sequence (P16066 33-1061): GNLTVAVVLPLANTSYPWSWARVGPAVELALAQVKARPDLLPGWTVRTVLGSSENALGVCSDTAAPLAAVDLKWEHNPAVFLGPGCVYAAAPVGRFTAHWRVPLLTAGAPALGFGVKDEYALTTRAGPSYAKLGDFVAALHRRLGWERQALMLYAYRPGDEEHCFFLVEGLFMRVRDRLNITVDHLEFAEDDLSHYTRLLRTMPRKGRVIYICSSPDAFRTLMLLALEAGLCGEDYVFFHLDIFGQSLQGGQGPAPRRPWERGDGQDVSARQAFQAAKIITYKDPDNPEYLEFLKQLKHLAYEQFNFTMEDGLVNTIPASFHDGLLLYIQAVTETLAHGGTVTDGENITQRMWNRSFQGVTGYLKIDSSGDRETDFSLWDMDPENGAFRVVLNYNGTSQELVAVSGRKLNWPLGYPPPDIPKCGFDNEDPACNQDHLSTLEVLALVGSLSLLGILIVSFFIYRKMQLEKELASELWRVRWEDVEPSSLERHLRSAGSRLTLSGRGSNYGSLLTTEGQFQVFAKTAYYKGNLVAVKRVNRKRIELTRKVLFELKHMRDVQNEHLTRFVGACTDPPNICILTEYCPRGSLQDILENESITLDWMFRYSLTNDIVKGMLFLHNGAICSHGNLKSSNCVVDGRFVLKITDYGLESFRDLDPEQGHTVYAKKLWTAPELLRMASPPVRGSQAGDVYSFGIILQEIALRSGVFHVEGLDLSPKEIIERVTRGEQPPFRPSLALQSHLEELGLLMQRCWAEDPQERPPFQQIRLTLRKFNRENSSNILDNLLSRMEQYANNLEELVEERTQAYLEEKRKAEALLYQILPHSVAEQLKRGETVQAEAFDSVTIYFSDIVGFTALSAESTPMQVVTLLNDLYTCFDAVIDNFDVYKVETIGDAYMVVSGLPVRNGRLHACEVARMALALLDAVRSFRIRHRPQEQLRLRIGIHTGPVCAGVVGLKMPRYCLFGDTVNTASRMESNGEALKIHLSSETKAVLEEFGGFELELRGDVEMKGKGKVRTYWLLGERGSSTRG
T1 sequence (P01160 124-151 partner limits assumed): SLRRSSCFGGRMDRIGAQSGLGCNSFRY
In words: cGMP production by HTRF in HEK293 cells overexpressing pGC-A, with ANP. The class given is cell-based. The following applies: for Max efficacy / EC50: HEK293 cells overexpressing pGC-A; for Max efficacy / Emax: cGMP normalized to maximal amount produced by an EC80 concentration of ANP; for EC50: test compound plus EC20 concentration of ANP, cGMP by HTRF; for Emax: HEK293, HEK293 cells overexpressing pGC-A, read-out: Max efficacy. The source says:
Assay: Generally, the assay monitors the production of cGMP, the second messenger generated by pGC-A, by Time-Resolved Florescence (HTRF) in HEK293 cells overexpressing the pGC-A. pGC-A suspension cells were stimulated in the presence of the test compound and an EC20 concentration of ANP. The quantity of cGMP was detected by competitive immunoassay using Eu^3+ cryptate-labeled anti-cGMP and d2-labeled cGMP and normalized to maximal amount produced by an EC80 concentration of ANP. Compound EC50 values were determined in the primary assay, in the presence or absence of ANP, to determine mode of action as positive modulators and tested for selectivity in the same assay platform but in HEK cells overexpressing the particulate guanylyl cyclase B receptor (pGC-B), of which CNP is the endogenous ligand.
Assay details: 20 nL of 10 μM test compound in DMSO was added to columns 5-48 of 1536 well white high base screening plates (Corning, New York, NY) cells using 550 ECHO acoustic dispenser (Labcyte, San Jose, CA). Alpha-atrial natriuretic peptide (ANP) (Phoenix Pharmaceutics) was prepared as stock aliquots at 5 μM in PBS with 0.1% BSA. An approximate […] concentration of ANP ([…]) in assay buffer (HBSS containing 5 mM HEPES and 0.05% BSA) was added to columns 3-48 at a volume of 1 μL. Assay buffer only was added to column 1 and assay buffer containing a saturating concentration of ANP (5 nM) was added to column 2. HEK293 cells overexpressing GC-A were resuspended in assay media (OptimMem media containing 2% Heat-inactivated Fetal bovine serum and L-glutamine) at a density of 6×10^5 cells/mL and 2 μL were plated in screening plates (1200 cells/well) in suspension using a Bioraptr 2. Plates were spun at 1000 rpm for 1 min and incubated for 30 min at room temperature. 1.5 μL d2-labeled cGMP followed by 1.5 μL Eu^3+ cryptate-labeled anti-cGMP cGMP detection kit (CiBio; #62GM2PEC) prepared according to manufacturer's protocol were added to all wells using a Bioraptr 2 and TR-FRET signal was detected on an EnVision detector (PerkinElmer). Wells treated with 0.3% DMSO only serve as blank controls (column 1); wells treated with 0.3% DMSO and 5 nM ANP (columns 2) serve as positive controls and wells treated with 0.3% DMSO and […] ANP (columns 3-4) serve as negative controls.

Experimental findings from patent publication US20250092030A1, “ENHANCERS OF PARTICULATE GUANYLYL CYCLASE RECEPTOR A” (Mayo Foundation for Medical Education and Research, priority 2023, published 2025) are described below.

Values joined by “and” are separate entries in the source; they are usually repeats but may differ in a detail not shown here. Identical values can stand only once. Where only a bound is given, the exact number is not on record here.

As for `CN1CCC(N2CCCC(C(=O)Nc3nc4c(F)cc(F)cc4s3)C2)C1` (stereo not shown) [compound 069], the Max efficacy is on record as 89-98% and the concentration for a half-maximal effect (EC50) lay within 30 to 200 nM.
On to `CN1CCCC(N2CCCC(C(=O)Nc3nc4c(F)cc(F)cc4s3)C2)C1` (stereo not shown) [compound 070], for which the Max efficacy was 71% and 85%.
Regarding `CN1CCC(N2CCCC(C(=O)Nc3nc4c(F)cc(F)cc4s3)C2)CC1` (stereo not shown) [compound 071], the Emax worked out at 93% and the EC50 is 200 nM.
Take `CN1CCCC1CN1CCCC(C(=O)Nc2nc3c(F)cc(F)cc3s2)C1` (stereo not shown) [compound 072]: the Max efficacy was 118% and 94%; the EC50 was 1200 nM and 1000 nM.
Regarding `CN1CCCCC1CN1CCCC(C(=O)Nc2nc3c(F)cc(F)cc3s2)C1` (stereo not shown) [compound 073], the Emax was found to be 94% and the 50% effective concentration (EC50) is 400 nM.
For `CN1CCCC(CN2CCCC(C(=O)Nc3nc4c(F)cc(F)cc4s3)C2)C1` (stereo not shown) [compound 074], the Emax came out at 80% and the EC50 amounted to 1100 nM.
Consider `CN1CCC(CN2CCCC(C(=O)Nc3nc4c(F)cc(F)cc4s3)C2)CC1` (stereo not shown) [compound 075], for which the Emax amounted to 92% and the EC50 stood at 1500 nM.
`Cn1cc(N2CCCC(C(=O)Nc3nc4c(F)cc(F)cc4s3)C2)cn1` (stereo not shown) [compound 078]: the Emax was 86%; the Max efficacy is listed as 81%; the concentration giving a half-maximal response (EC50) was 4900 nM and 2100 nM.
As to `O=C(Nc1nc2c(F)cc(F)cc2s1)C1CCCN(c2ccccn2)C1` (stereo not shown) [compound 079], the concentration giving a half-maximal response (EC50) is over 5000 nM.
In the case of `O=C(Nc1nc2c(F)cc(F)cc2s1)C1CCCN(c2cccnc2)C1` (stereo not shown) [compound 080], the Max efficacy is 135% and 104%; the EC50 is 7400 nM and 2500 nM.
`O=C(Nc1nc2c(F)cc(F)cc2s1)C1CCCN(c2ccncc2)C1` (stereo not shown) [compound 081]: the Emax came to 87%; the Max efficacy is on record as 87, 87, 87%; the EC50 was 100 nM and 70 nM and 300 nM.
With `CN1CC(N2CCCC(C(=O)Nc3nc4c(F)cc(F)cc4s3)C2)C1` (stereo not shown) [compound 084], the Emax amounted to 83%; the Max efficacy was 67%; the EC50 is 70 nM and 20 nM.
With `O=C(Nc1nc2c(F)cc(F)cc2s1)C1CCCN(C2CNC2)C1` (stereo not shown) [compound 085], the Emax was determined as 89%; the Max efficacy is on record as 84%; the EC50 was 80 nM and 200 nM.
Consider `CN1CCC(N2CCCC(C(=O)Nc3nc4c(F)cc(F)cc4s3)C2)C1` (stereo not shown) [compound 090], for which the Emax was determined as 85%; the Max efficacy was 69%; the EC50 is 160 nM and 70 nM.
In the case of `O=C(Nc1nc2c(F)cc(F)cc2s1)C1CCCN(C2CCNC2)C1` (stereo not shown) [compound 091], the Emax came to 72% and the half-maximal effective concentration (EC50) was determined as 1300 nM.
Turning to `C=CCN1CCC(N2CCCC(C(=O)Nc3nc4c(F)cc(F)cc4s3)C2)C1` (stereo not shown) [compound 092], the Emax was 89% and the EC50 came out at 50 nM.
Take `COCCN1CCC(N2CCCC(C(=O)Nc3nc4c(F)cc(F)cc4s3)C2)C1` (stereo not shown) [compound 093]: the Emax stood at 86% and the EC50 is 90 nM.
For `COC(=O)CN1CCC(N2CCCC(C(=O)Nc3nc4c(F)cc(F)cc4s3)C2)C1` (stereo not shown) [compound 094], in that order: 93% and 1000 nM.
`O=C(O)CN1CCC(N2CCCC(C(=O)Nc3nc4c(F)cc(F)cc4s3)C2)C1` (stereo not shown) [compound 095]: the EC50 is over 5000 nM.
On to `CN1CCC(N2CCCC(C(=O)Nc3nc4c(F)cc(F)cc4s3)C2)C1=O` (stereo not shown) [compound 097], for which the Emax was 89% and the EC50 was determined as 700 nM.
As to `O=C(Nc1nc2c(F)cc(F)cc2s1)C1CCCN(C2CCCC2)C1` (stereo not shown) [compound 099], the Emax worked out at 91% and the 50% effective concentration (EC50) was found to be 600 nM.
For `CN1CCC(N2CCCC(C(=O)Nc3nc4c(Br)cccc4s3)C2)C1` (stereo not shown) [compound 100], in that order: 84% and 250 nM.
The matching figures for `O=C(Nc1nc2c(Br)cccc2s1)C1CCCN(C2CCNC2)C1` (stereo not shown) [compound 101]: 84% and 500 nM.
For `CN1CC(N2CCCC(C(=O)Nc3nc4c(Cl)cc(F)cc4s3)C2)C1` (stereo not shown) [compound 103], in that order: 82% and 280 nM.
For the molecule `O=C(Nc1nc2c(Cl)cc(F)cc2s1)C1CCCN(c2ccncc2)C1` (stereo not shown) [compound 104], the Emax was 70% and the EC50 was determined as 280 nM.
Turning to `Cc1cc(N2CCCC(C(=O)Nc3nc4c(F)cc(F)cc4s3)C2)ccn1` (stereo not shown) [compound 105], the Emax came to 87% and the EC50 stood at 90 nM.
For `O=C(Nc1nc2c(F)cc(F)cc2s1)C1CCCN(c2ccnc(F)c2)C1` (stereo not shown) [compound 106], in that order: 101% and 3500 nM.
The matching figures for `COc1cc(N2CCCC(C(=O)Nc3nc4c(F)cc(F)cc4s3)C2)ccn1` (stereo not shown) [compound 107]: 101% and 2100 nM.
Consider `Nc1cc(N2CCCC(C(=O)Nc3nc4c(F)cc(F)cc4s3)C2)ccn1` (stereo not shown) [compound 108], for which the Emax came to 88% and the EC50 turned out to be 600 nM.
Regarding `O=C(Nc1nc2c(F)cc(F)cc2s1)C1CCCN(c2ccncn2)C1` (stereo not shown) [compound 109], the Emax came to 82%; the Max efficacy is listed as 74%; the EC50 is 200 nM and 1080 nM.
For `O=C(Nc1nc2c(F)cc(F)cc2s1)C1CCCN(Cc2ccncc2)C1` (stereo not shown) [compound 110], the Emax was 95%; the Max efficacy was 78%; the EC50 is 460 nM and 1100 nM.
Consider `Cc1cncnc1N1CCCC(C(=O)Nc2nc3c(F)cc(F)cc3s2)C1` (stereo not shown) [compound 111], for which the Emax worked out at 65% and the EC50 stood at 400 nM.
In the case of `O=C(Nc1nc2c(F)cc(F)cc2s1)C1CCCN(c2ccncc2F)C1` (stereo not shown) [compound 112], the Emax stood at 97%.
For `O=C(Nc1nc2c(F)cc(F)cc2s1)C1CCCN(c2ccncc2Br)C1` (stereo not shown) [compound 113], the EC50 is over 5000 nM.
Still for that read-out and setting: in the case of `O=C(Nc1nc2c(Cl)cc(F)cc2s1)C1CCCN(c2ccnc3ccccc23)C1` (stereo not shown) [compound 114] it was over 5000 nM.
For the molecule `O=C(Nc1nc2c(Cl)cc(F)cc2s1)C1CCCN(c2ccnnc2)C1` (stereo not shown) [compound 115], the Emax came to 56% and the EC50 amounted to 100 nM.
Consider `CC1C(N2CCCC(C(=O)Nc3nc4c(Cl)cc(F)cc4s3)C2)CN1C` (stereo not shown) [compound 130], for which the Emax worked out at 94% and the EC50 is 120 nM.
With `CC1NCC1N1CCCC(C(=O)Nc2nc3c(Cl)cc(F)cc3s2)C1` (stereo not shown) [compound 131], the Emax stood at 81% and the EC50 amounted to 130 nM.
For `CCN1CC(N2CCCC(C(=O)Nc3nc4c(Cl)cc(F)cc4s3)C2)C1` (stereo not shown) [compound 135], in that order: 85% and 110 nM.

The term EC50 denotes the concentration giving half of the maximal effect.
